Tests used:
[1] = biological target: T1, iRFP713 (Rhodopseudomonas palustris, UniProt G1FNL7, C15S); assay: absorption, fluorescence, zinc-stained SDS-PAGE; BV/PCB competition; assay type: binding; details: not covalent; apoprotein with 2-fold excess PCB, pH 8.0, 4 °C
T1 construct: gene iRFP

[2] = biological target: T1, iRFP713; assay: absorption and fluorescence spectroscopy; BV/PCB competition; assay type: binding; details: not covalent; overnight with both tetrapyrroles, BV to PCB molar ratio 0.02 to 80

| Structure (SMILES) | absorption, fluorescence, zinc-stained SDS-PAGE; BV/PCB competition [1] | absorption and fluorescence spectroscopy; BV/PCB competition [2] |
| --- | --- | --- |
| C/C=C1/C(=C/c2[nH]c(/C=C3N=C(/C=C4\NC(=O)C(CC)=C4C)C(C)=C\3CCC(=O)O)c(CCC(=O)O)c2C)NC(=O)[C@@H]1C [PCB, phycocyanobilin] | iRFP713/C15S, lacking the conserved Cys15 residue, forms a fluorescent complex with PCB | – |
| C=CC1=C(C)C(=Cc2[nH]c(C=C3N=C(C=C4NC(=O)C(C)=C4C=C)C(C)=C3CCC(=O)O)c(CCC(=O)O)c2C)NC1=O [BV, biliverdin IXα] | – | The binding affinity of BV ligand to iRFP713/C15S |

— article PMC6928796, “Near-Infrared Markers based on Bacterial Phytochromes with Phycocyanobilin as a Chromophore” (International Journal of Molecular Sciences, 2019)
